{"source": "patent US20160303009A1", "about": "“HAIR CARE COMPOSITION” (CONOPCO, INC., D/B/A UNILEVER, priority 2013, published 2016)", "test_system": "trypsin", "assay": "Trypsin activity, fluorescence assay (EnzChek Protease Assay Kit E6639)", "format": "biochemical", "details": "trypsin 100 μg/ml, 50 mM Tris-HCl pH 8.0", "method": "Typsin activity was assessed using a commercial assay employing fluorescence measurement (EnzChek® Protease Assay Kit E6639 from Molecular Probes). The assayed solutions contained trypsin (100 μg/ml) and various amounts of the zinc salts in 50 mM Tris-HCl (pH 8.0)."}
{"molecule": "O.O.O.O.O.O.O.O=S(=O)([O-])[O-].[Zn+2]", "note": "[Zinc Sulfate Heptahydrate]", "values": [{"measurement": "Protease inhibition", "setting": "salt concentration 0.0001 wt %", "value": 4, "unit": "%"}, {"measurement": "Protease inhibition", "setting": "salt concentration 0.001 wt %", "value": 14, "unit": "%"}, {"measurement": "Protease inhibition", "setting": "salt concentration 0.01 wt %", "value": 33, "unit": "%"}, {"measurement": "Protease inhibition", "setting": "salt concentration 0.1 wt %", "value": 92, "unit": "%"}, {"measurement": "Protease inhibition", "setting": "salt concentration 1 wt %", "value": 93, "unit": "%"}]}
{"molecule": "Zinc Gluconate", "values": [{"measurement": "Protease inhibition", "setting": "salt concentration 0.0001 wt %", "value": "−4", "unit": "%"}, {"measurement": "Protease inhibition", "setting": "salt concentration 0.001 wt %", "value": 10, "unit": "%"}, {"measurement": "Protease inhibition", "setting": "salt concentration 0.01 wt %", "value": 28, "unit": "%"}, {"measurement": "Protease inhibition", "setting": "salt concentration 0.1 wt %", "value": 94, "unit": "%"}, {"measurement": "Protease inhibition", "setting": "salt concentration 1 wt %", "value": 94, "unit": "%"}]}
{"molecule": "[Cl-].[Cl-].[Zn+2]", "note": "[Zinc Chloride]", "values": [{"measurement": "Protease inhibition", "setting": "salt concentration 0.0001 wt %", "value": 7, "unit": "%"}, {"measurement": "Protease inhibition", "setting": "salt concentration 0.001 wt %", "value": 20, "unit": "%"}, {"measurement": "Protease inhibition", "setting": "salt concentration 0.01 wt %", "value": 69, "unit": "%"}, {"measurement": "Protease inhibition", "setting": "salt concentration 0.1 wt %", "value": 93, "unit": "%"}, {"measurement": "Protease inhibition", "setting": "salt concentration 1 wt %", "value": 96, "unit": "%"}]}
